Reference: paper PMC9551036, “A selective and orally bioavailable VHL-recruiting PROTAC achieves SMARCA2 degradation in vivo” (Nature Communications, 2022)
“And” between values parts separate entries of the source, which are not always exact repeats. Identical values can stand only once. Like-named read-outs stand apart in the source and are kept apart here.

Legend:
SMARCA2^BD = target: T1, SMARCA2^BD (Homo sapiens, UniProt P51531); assay: SPR binding to immobilised SMARCA2 bromodomain; conditions: SPR, read-out: SMARCA2 KD
T1 construct: P51531-2, residues 1373-1493 with additional N-terminal SM residues; GST (TEV site) (N, cleaved yes); made in house; host or cells: Escherichia coli BL21(DE3)
Method: (§1) SMARCA4^BD was provided by the Structural Genomics Consortium (SGC), Toronto[32] and SMARCA2^BD and PRM1^BD5 were synthesised by GeneArt then subcloned into pDEST15 vectors (Invitrogen). The VCB complex was expressed and purified as described previously, with the modification that 0.3 mM IPTG was used for induction of expression. […] Both were stored in 20 mM 4-(2-hydroxyethyl)−1-piperazineethanesulfonic acid (HEPES), 150 mM sodium chloride and 1 mM tris(2-carboxyethyl)phosphine (TCEP) pH 7.5. SMARCA2^BD, SMARCA4^BD and PBRM1^BD5 were expressed in Escherichia coli BL21(DE3) as N-terminal GST fusion proteins with a TEV protease cleavage site. Expression and purification of these proteins has been described previously[32],[33]. Starter cultures were grown overnight at 37 °C in 10 mL of Luria-Bertani (LB) medium with ampicillin (100 μg/mL). The starter cultures were diluted (1:100) in Terrific Broth (TB) medium with ampicillin (100 μg/mL) and grown in a shaking incubator at 37 °C to an optical density (OD600) ~1 before the temperature was lowered for induction (to 23 °C for SMARCA2^BD or 18 °C for SMARCA4^BD and PRRM1^BD5). […] Cells were harvested by centrifugation and stored at −80 °C prior to purification. […] The Lysis buffers were as follows: for SMARCA2^BD: 50 mM HEPES, 500 mM sodium chloride, 5% glycerol, 5 mM dithiothreitol (DTT); for SMARCA4^BD: 25 mM HEPES, 0.3 M sodium chloride, 5% glycerol, 10 mM DTT, pH 7.5; for PBRM1^BD5: 25 mM HEPES, 300 mM sodium chloride, 5% glycerol, 10 mM DTT, pH 7.8; in each case supplemented with complete protease inhibitors (Roche). Affinity purification was performed using Glutathione Sepharose 4B (GE Healthcare) in batch mode or on-column. […] For SMARCA2^BD, prior to TEV protease cleavage the eluted GST-tagged BD was first dialysed into desalting buffer (20 mM HEPES, 250 mM sodium chloride, pH 7.0 + 0.5% glycerol). Where TEV cleavage was performed in solution, a second affinity (GST-trap) column purification step was carried out to remove the GST-tag and uncleaved GST-tagged protein. Proteins were further purified by SEC (HiLoad Superdex-75, 16/600) (GE Healthcare) and stored in Storage buffer (for SMARCA2^BD: 20 mM HEPES, 150 mM sodium chloride, pH 7.5; for SMARCA4^BD: 10 mM HEPES, 0.5 M NaCl, 5% glycerol, pH 7.5; for PBRM1^BD5: 20 mM HEPES, 300 mM NaCl, 5 mM DTT, pH 7.8). For AlphaScreen assays, eluted GST-tagged BDs were purified directly by SEC in the respective storage buffers without TEV cleavage. All chromatography purification steps were performed either at room temperature or 4 °C using an ÄKTA FPLC purification system (GE Healthcare) or a plastic Econo-Pac column (Bio-Rad).
(§2) SPR data were acquired on Biacore 8K or T200 instruments (Cytiva). Target proteins were immobilised at 25 °C on CM5 chips by amine coupling (EDC/NHS, Cytiva) in HBS-P+ running buffer (pH 7.4), containing 2 mM TCEP. […] The reference surface was subsequently deactivated using 1 M ethanolamine. […] Biotinylated VCB was prepared as previously described[27]: in brief, the complex was mixed 1:1 with EZ-Link NHS–PEG4–biotin (Thermo Scientific) and incubated at room temperature for 1 h. Unreacted NHS-biotin was removed using a PD-10 desalting column (Cytiva) into 20 mM HEPES, pH 7.5, 150 mM sodium chloride and 1 mM DTT. The reference surface was generated by deactivating the EDC/NHS-treated surface with 1 M ethanolamine. All interaction experiments were done at 6 °C in running buffer (20 mM TRIS, pH 8.3, 150 mM potassium chloride, 2 mM magnesium chloride, 2 mM TCEP, 0.005% TWEEN 20, 1% dimethyl sulfoxide). For ternary complex measurements, a sensor chip surface with VCB immobilised was used (preparation as described above). Experiments were run in dual-inject mode with 10 µM SMARCA present during the injection and dissociation phase. Sensorgrams from reference surfaces and blank injections were subtracted from the raw data prior to data analysis using Biacore Insight software.

[1] = Bidirectional permeability measurement in Caco-2 cells; type: in vitro ADME; conditions: human
Method in brief: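 Caco-2 monolayers grown 14–21 days, preincubated 24 h with medium containing 1 µM compound; bidirectional transport sampled up to 2 h, quantified by LC-MS/MS, ± 5 µM zosuquidar (P-gp inhibitor). Papp,AB and Papp,BA from receiver amount, donor C0, area and time; efflux ratio = Papp,BA/Papp,AB (duplicate means). TEER checked per plate.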

VCB complex = target: T2, VCB complex (Homo sapiens, UniProt P40337); assay: SPR binary binding to immobilised VCB complex
T2 construct: His6 (TEV site) (N, cleaved yes); made in house
Method: as §1, §2

[2] = test system: VCB: PROTAC: SMARCA4^BD ternary complex; assay: TR-FRET ternary complex affinity and cooperativity, SMARCA4; type: binding, human; conditions: ratio TR-FRET EC50 / TR-FRET EC50 +VCB measured in the same run, SMARCA4BD
[3] = Caco-2, pH 7.4, Caco-2, read-out: Caco-2 Pab
[4] = binary binding to VCB, mean ± SD

T2 sequence (P40337 54-213): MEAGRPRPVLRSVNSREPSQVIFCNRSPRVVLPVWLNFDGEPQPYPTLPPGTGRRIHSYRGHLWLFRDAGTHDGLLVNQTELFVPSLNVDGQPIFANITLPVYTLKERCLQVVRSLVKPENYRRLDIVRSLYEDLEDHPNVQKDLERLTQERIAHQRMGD
T2 sequence (Q15369 17-112 partner limits assumed): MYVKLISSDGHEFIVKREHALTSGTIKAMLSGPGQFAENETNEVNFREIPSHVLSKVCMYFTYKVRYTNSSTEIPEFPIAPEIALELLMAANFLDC
T2 sequence (Q15370 1-104 partner limits assumed): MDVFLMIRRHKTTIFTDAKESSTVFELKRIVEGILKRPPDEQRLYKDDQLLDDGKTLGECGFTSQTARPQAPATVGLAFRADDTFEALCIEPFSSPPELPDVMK
T1 sequence (P51531 1373-1493 isoform P51531-2): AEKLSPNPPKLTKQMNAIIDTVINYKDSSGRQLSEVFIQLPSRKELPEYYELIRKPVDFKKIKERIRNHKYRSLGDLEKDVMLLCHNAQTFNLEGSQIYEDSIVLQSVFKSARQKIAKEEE

For `O=c1nc2n(C3CCCC3)c3ccccc3n2c2cccc(Br)c12` [compound 1], the Kd (SMARCA2^BD; SMARCA2BD, mean ± SD) was 1060 ± 258 nM, the Kd (SMARCA2^BD; individual replicates) was 1050 nM and 804 nM and 1320 nM and the Papp B→A at 1 µM ([1]; Caco-2, pH 7.4, Caco-2, b to a, read-out: Caco-2 Pba) was 23.9 ×10⁻⁶ cm/s. For the same compound, the efflux ratio at 2 h, 1 µM ([1]; Caco-2, pH 7.4, Caco-2, read-out: Caco-2 Efflux ratio) was 0.774 and the Papp A→B at 1 µM [1, 3] was 31 ×10⁻⁶ cm/s.
For `Cc1ncsc1-c1ccc([C@H](COC(C)(C)CN2CCC(c3ccc4c(c3)n(C3CCCC3)c3nc(=O)c5c(Br)cccc5n43)CC2)NC(=O)[C@@H]2C[C@@H](O)CN2C(=O)[C@@H](NC(=O)C2(F)CC2)C(C)(C)C)cc1` [compound 28], the Kd (SMARCA2^BD; SMARCA2BD, mean ± SD) was 196 ± 3 nM, the Kd (SMARCA2^BD; individual replicates) was 199 nM and 193 nM and 195 nM and the Kd (VCB complex; [4]) was 55 ± 29 nM. For the same compound, the Kd (VCB complex; binary, individual replicates) was 50.4 nM and 131 nM and 47.1 nM and 49.5 nM and 39.6 nM and 49.4 nM and 39.8 nM and 43.6 nM and 44.9 nM and the “cooperativity α (SMARCA4BD)” value [2] was 3.2 ± 0.7.
In the case of `Cc1ncsc1-c1ccc([C@H](COCCCN2CCC(c3ccc4c(c3)n(C3CCCC3)c3nc(=O)c5c(Br)cccc5n43)CC2)NC(=O)[C@@H]2C[C@@H](O)CN2C(=O)[C@@H](NC(=O)C2(F)CC2)C(C)(C)C)cc1` [compound 27], the Kd (SMARCA2^BD; SMARCA2BD, mean ± SD) is reported as 217 ± 30 nM, the Kd (SMARCA2^BD; individual replicates) is reported as 244 nM and 185 nM and 221 nM and the Kd (VCB complex; [4]) is reported as 12 ± 9 nM. The Kd (VCB complex; binary, individual replicates) was 8.51 nM and 25.4 nM and 6.56 nM and 9 nM and the “cooperativity α (SMARCA4BD)” value [2] was 2.8 ± 0.5.
In the case of `CN1CCN(c2nc(=O)c3c(Br)cccc3o2)CC1` [compound 15], the Kd (SMARCA2^BD; SMARCA2BD, mean ± SD) is reported as 9000 ± 526 nM and the Kd (SMARCA2^BD; individual replicates) is reported as 8910 nM and 9570 nM and 8530 nM.
For `Cc1ncsc1-c1ccc(CNC(=O)[C@@H]2C[C@@H](O)CN2C(=O)[C@@H](NC(=O)C2(F)CC2)C(C)(C)C)c(OCCN2CCC(c3ccc4c(c3)n(C3CCCC3)c3nc(=O)c5c(Br)cccc5n43)CC2)c1` [compound 20], the Kd (SMARCA2^BD; SMARCA2BD, mean ± SD) was 104 ± 6 nM, the Kd (SMARCA2^BD; individual replicates) was 103 nM and 98.8 nM and 110 nM and the Kd (VCB complex; [4]) was 9 ± 7 nM. The Kd (VCB complex; binary, individual replicates) was 6.64 nM and 20.3 nM and 5.1 nM and 5.19 nM and the “cooperativity α (SMARCA4BD)” value [2] was 0.4 ± 0.0.
With `Cc1ncsc1-c1ccc([C@H](CCC(C)(C)CCN2CCC(c3ccc4c(c3)n(C3CCCC3)c3nc(=O)c5c(Br)cccc5n43)CC2)NC(=O)[C@@H]2C[C@@H](O)CN2C(=O)[C@@H](NC(=O)C2(F)CC2)C(C)(C)C)cc1` [compound 30] the Kd (SMARCA2^BD; SMARCA2BD, mean ± SD) was 325 ± 31 nM, the Kd (SMARCA2^BD; individual replicates) was 290 nM and 351 nM and 333 nM and the Kd (VCB complex; [4]) was 29 ± 8 nM. The Kd (VCB complex; binary, individual replicates) was 38.3 nM and 25.5 nM and 32.6 nM and 21 nM and the “cooperativity α (SMARCA4BD)” value [2] was 4.3 ± 0.5.
With `Cc1ncsc1-c1ccc([C@H](CCCCCN2CCC(c3ccc4c(c3)n(C3CCCC3)c3nc(=O)c5c(Br)cccc5n43)CC2)NC(=O)[C@@H]2C[C@@H](O)CN2C(=O)[C@@H](NC(=O)C2(F)CC2)C(C)(C)C)cc1` [compound 11] the Kd (SMARCA2^BD; individual replicates) was 148 nM and 144 nM and 140 nM, the Kd (VCB complex; [4]) was 9 ± 3 nM and the Kd (VCB complex; binary, individual replicates) was 11.2 nM and 11.4 nM and 9.47 nM and 7.94 nM and 8.34 nM and 7.19 nM and 5.73 nM and 11.9 nM and 4.42 nM. The “cooperativity α (SMARCA4BD)” value [2] was 4.2 ± 0.4, the Papp A→B at 1 µM [1, 3] was 1.4 ± 0.5 ×10⁻⁶ cm/s and the Papp A→B at 1 µM ([1]; Caco-2, pH 7.4, Modified Caco-2, read-out: Modified Caco-2 Pab) was 6 ± 3 ×10⁻⁶ cm/s.
In the case of `CN1CCN(c2nc(=O)c3c(I)cccc3o2)CC1` [compound 16], the Kd (SMARCA2^BD; SMARCA2BD, mean ± SD) is reported as 17900 ± 917 nM and the Kd (SMARCA2^BD; individual replicates) is reported as 18100 nM and 16900 nM and 18700 nM.
In the case of `Cc1ncsc1-c1ccc(CNC(=O)[C@@H]2C[C@@H](O)CN2C(=O)[C@@H](NC(=O)C2(F)CC2)C(C)(C)C)c(OCCOCCOCCN2CCC(c3ccc4c(c3)n(C3CCCC3)c3nc(=O)c5c(Br)cccc5n43)CC2)c1` [compound 21], the Kd (SMARCA2^BD; SMARCA2BD, mean ± SD) is reported as 680 ± 121 nM, the Kd (SMARCA2^BD; individual replicates) is reported as 650 nM and 814 nM and 577 nM and the Kd (VCB complex; [4]) is reported as 21 ± 5 nM. The Kd (VCB complex; binary, individual replicates) was 19.9 nM and 27 nM and 21.6 nM and 15.2 nM and the “cooperativity α (SMARCA4BD)” value [2] was 4.0 ± 0.2.
